Here are results for one compound from patent US9066965B1, “Purified limonin glucoside for prevention and treatment of chronic diseases” (The United States of America, as represented by the …, priority 2012, dated 2015).

“And” between values parts separate entries of the source, which are not always exact repeats. Equal values may be shown once. “Also recorded” adds a separate entry of the source.

Common to all, as to format: in vivo, human
The subject of data set [1] is alanine amino transferase (ALT). The data set is described as follows: Serum alanine amino transferase (CMP). The settings on record: 500 mg/d, 56 days. The protocol: (§1) CMP performed on serum samples at the chemistry laboratory of University of California Medical Center by using the Beckman Coulter DxC800. GGT and CKMB were determined in the EDTA plasma. GGT activity was determined by using Integra 400 Chemistry Analyzer, Roche Diagnostics. CKMB concentration was determined by using the Multiplex kits from Mesoscale Discovery (Gaithersburg, Md. 20877).
(§2) SAS PROC MIXED was used to fit the cross-over model (Littell R C, Milliken G A, Stroup W W, Wolfinger R D, Schabenberger O. SAS System for Mixed Models. Cay, N.C.: SAS Institute Inc.; 2006). Transformations were used when appropriate to stabilize the variances among the diets and periods. The fixed effects were order, diet, the interaction and the covariate; and the random effect was subjects within order. The test for order is a test for carry-over effect. […] Comparisons were made between the values at the end of placebo and LG treatments and using the baseline data as a covariate. Results are presented as means±SEM. Differences were considered statistically significant for P value<0.05.

The test system of data set [2] is creatinine kinase MB (CKMB). Put plainly: Plasma CKMB concentration (Mesoscale multiplex). The settings on record: EDTA plasma; End LG, 500 mg/d, 56 days, n = 10, mean ± SEM. The protocol:
as §1, §2

A short description of data set [3]: Adverse effects and tolerability of the LG drink. The source says: A total of 11 adverse events were reported by 6 subjects for the entire duration of the study (data not shown). Some of these events such as volunteer hurting their back or hand were definitely unrelated to the drinks, while others like a weird taste, dry throat seem related to the drinks, still others such as mild cold or frequent urinating, or rash on chest may or may not be related to the drinks. […] Since the placebo was also the carrier of LG, all adverse events may be due to the placebo drinks.

The subject of data set [4] is gamma glutamyl transferase (GGT). The data set is described as follows: Plasma GGT activity (Integra 400). Conditions: 56 days. The protocol:
as §1, §2

For data set [5], the system named is peripheral blood mononuclear cells (PBMNC). The data set is described as follows: Ex-vivo production of cytokines by PBMNC. The protocol:
Peripheral blood mononuclear cells (PBMNC) were isolated by using Dulbecco's phosphate buffered saline (DPBS) and suspended in Russ's-10 medium containing 10% autologous sera at concentrations of 1 million/mL. PBMNC were cultured in Costar 96-well sterile flat bottom plates coated with mouse anti-human CD3 and CD28 to stimulate T cells. Another set of wells were stimulated with LPS (final concentration 10 ng/mL) to stimulate monocytes. Cell culture supernatants were collected at 24, 48, and 72 hr after stimulation by centrifugation. Cell culture supernatants were stored at −80° C. until tested for cytokine concentrations. All cytokines were analyzed on a BioPlex instrument (BioRad Laboratories, Richmond, Calif.) with multiplex reagents kits (Millipore Corp., Danvers, Mass.).
Results are presented as means±SEM.

The mark [6] stands for this setting: cells stimulated with CD3/28 (each 0.75 μg/mL, 72 hr), End LG, 500 mg/d, 56 days, n = 10, mean ± SEM.
[7] abbreviates: cells stimulated with LPS (10 ng/mL, 24 hr), End LG, 500 mg/d, 56 days, n = 10, mean ± SEM.

In data set [1] (serum, End LG, n = 10, mean ± SEM), `CC1(C)O[C@H]2CC(=O)OC[C@]23[C@H]2CC[C@@](C)([C@@H](O[C@@H]4O[C@H](CO)[C@@H](O)[C@H](O)[C@H]4O)c4ccoc4)[C@@]4(O[C@@H]4C(=O)O)[C@]2(C)C(=O)C[C@@H]13` [LG, limonin glucoside] had an Alanine amino trasferase of 25.2 ± 5.08 U/L. Besides, the “decrease of serum alanine aminotransferase (ALT) activity” value in data set [1] (vs end of placebo treatment, p=0.041) worked out at 13.1%. In data set [2], this compound registered a CKMB of 2.60 ± 0.50 ng/mL. For the same compound, in data set [3] (500 mg/d, 56 days), the “effect on parameters of CBC, CMP and MAP 1.6” value is “did not adversely affect”; the serious adverse effects entry is “did not have any serious adverse effects”; the tolerability result is “well tolerated”. Further, the “adverse events reported while taking the drink” value in data set [3] (out of the 11 adverse events of the study, 7 on placebo drinks) worked out at 4. In addition, in data set [4] (EDTA plasma, End LG, 500 mg/d, n = 10, mean ± SEM), the GGT came out at 25.2 ± 8.0 U/L. For the same compound, the “decrease of plasma activity of GGT” value in data set [4] (vs end of placebo treatment, 0.5 g/d, p=0.001) was 33.8% and 33%. In addition, the “ex-vivo secretion of cytokines by stimulated T cells and monocytes” value in data set [5] (LG vs placebo treatment) is “did not differ; also recorded: trend for decrease”. In data set [5] (setting [6]), the IL-2 came out at 58.8 ± 25.8 pg/mL, the IL-4 was determined as 66.7 ± 12.8 pg/mL, the IL-10 stood at 779 ± 126 pg/mL and the “Interferon γ” value is given as 51700 ± 10536 pg/mL. For the same compound, the “TNF α” value in data set [5] (setting [6]) is listed as 6723 ± 970 pg/mL. For the same compound, in data set [5] (setting [7]), the IL-1β worked out at 4731 ± 1123 pg/mL, the IL-6 is listed as 10926 ± 1586 pg/mL and the “TNF α” value came out at 1354 ± 231 pg/mL. Moreover, the “concentrations of all secreted cytokines except IL-10 lower than after placebo” value in data set [5] (ex vivo, CD3/28 or LPS stimulated PBMNC, not significant) is 8-18%.
